Test results: patent US9023623B2, “Method for preparing of allicin injection and low-temperature continuous stirring ultrafiltration device thereof” (Xinjiang Ailexin Pharmaceutical Co., Ltd., priority 2010, dated 2015)
Converted amounts (≈) assume the structure as drawn.

What was measured:
Helicobacter pylori = test: Anti-pathogenic microorganism test; assay type: cell-based
[1] = test system: Methicillin Resistant Staphylococcus Aureus (MRSA); test: Anti-pathogenic microorganism test; assay type: cell-based
Acinetobacter = test: Anti-pathogenic microorganism test; assay type: cell-based
[2] = background description; cited from earlier work
Candida albicans = test: Anti-pathogenic microorganism test; assay type: cell-based
Escherichia coli = test: Anti-pathogenic microorganism test; assay type: cell-based
[3] = room temperature; background description; cited from earlier work

C=CCS[S+]([O-])CC=C (stereo not shown) [Allicin, thio-2-propene-1-sulfinic acid S-allyl ester]
MIC (Helicobacter pylori): 10 to 30 µg/mL (≈ 61.6 to 185 µM) | bactericidal activity (Helicobacter pylori): obviously bactericidal activity | bactericidal activity [1]: obviously bactericidal activity | MIC ([1]; Staphylococcus aureus): 10 to 30 µg/mL (≈ 61.6 to 185 µM) | bactericidal activity (Acinetobacter): obviously bactericidal activity | decomposition when exposed to air [2]: decomposes and deteriorates within a few hours | bactericidal activity (Candida albicans): obviously bactericidal activity | sensitivity to allicin (Candida albicans): sensitive | bactericidal activity (Escherichia coli): obviously bactericidal activity | solubility in water [3]: slightly soluble in water
